Experiments:
[1] = Formulation with 10% compound 5: stability of clear solution; type: physicochemical; details: 10% formulation (~100 mg/ml)
[2] = Visual solubility test of compound 5 in aqueous acid solution; type: physicochemical
Description: A visual solubility test (100 μL) at a series of target concentrations of 50, 100 or 200 mg/mL of compound 5 in aqueous acid solution was performed.
In a 96 well plate (400-600 μL), compound 5 was dispensed (5, 10, or 20 mg per well), acid was added (100 μl of a 350 mM solution in water to each well) and the mixtures were equilibrated at 25° C. with stirring. Solubility was checked by visual inspection after 30 min and after one day.

[3] = Acetic Acid 350 mM in water, 25° C.
[4] = Ethanesulfonic Acid 350 mM in water
[5] = Glucuronic Acid 350 mM in water
[6] = Glutamic Acid 350 mM in water, 25° C.
[7] = Methanesulfonic Acid 350 mM in water
[8] = Methanesulfonic Acid 350 mM in water, 25° C.
[9] = Nicotinic Acid 350 mM in water, 25° C.
[10] = Oxoglutaric Acid 350 mM in water
[11] = lsethionic Acid 350 mM in water
[12] = lsethionic Acid 350 mM in water, 25° C.

## COc1cc(NCCNC(=O)/C=C/C(C)(F)F)ccn1 [Compound 5]
[1]; pH of 4.4, equimolar Citric acid
  stability (remains clear solution): 3 months
[1]; pH of 4.4, equimolar Malic acid
  stability (remains clear solution): 3 months
[1]; pH of 4.4, equimolar Tartaric acid
  stability (remains clear solution): 3 months
[2]; Acetic Acid 350 mM in water
  pH for 50 mg/mL: 5.09
  pH for 100 mg/mL: 5.02
  pH for 200 mg/mL: 5.06
[2]; [3]
  Range at 1 Day: <58 mg/mL
  Range at 30 mins.: <58 mg/mL
[2]; Benzoic Acid 350 mM in water
  pH for 50 mg/mL: 4.94
  pH for 100 mg/mL: 5.23
  pH for 200 mg/mL: 5.20
[2]; Citric Acid 350 mM in water
  pH for 50 mg/mL: 3.36
  pH for 100 mg/mL: 4.06
  pH for 200 mg/mL: 4.84
[2]; [4]
  pH for 50 mg/mL: 0.96
  pH for 100 mg/mL: 1.17
  pH for 200 mg/mL: 4.99
[2]; Fumaric Acid 350 mM in water
  pH for 50 mg/mL: 3.59
  pH for 100 mg/mL: 3.89
  pH for 200 mg/mL: 4.86
[2]; [5]
  pH for 50 mg/mL: 3.60
  pH for 100 mg/mL: 4.86
  pH for 200 mg/mL: 4.80
[2]; Glutamic Acid 350 mM in water
  pH for 50 mg/mL: 5.11
  pH for 100 mg/mL: 5.05
  pH for 200 mg/mL: 5.14
[2]; [6]
  Range at 1 Day: <53 mg/mL
  Range at 30 mins.: <53 mg/mL
[2]; Lactic Acid 350 mM in water
  pH for 50 mg/mL: 4.50
  pH for 100 mg/mL: 4.88
  pH for 200 mg/mL: 4.94
[2]; Malic Acid 350 mM in water
  pH for 50 mg/mL: 3.68
  pH for 100 mg/mL: 4.45
  pH for 200 mg/mL: 4.78
[2]; [7]
  pH for 50 mg/mL: 7.60
  pH for 100 mg/mL: 7.61
  pH for 200 mg/mL: 7.31
[2]; [8]
  Range at 1 Day: <52 mg/mL
  Range at 30 mins.: <52 mg/mL
[2]; Nicotinic Acid 350 mM in water
  pH for 50 mg/mL: 5,25
  pH for 100 mg/mL: 5.15
  pH for 200 mg/mL: 5.16
[2]; [9]
  Range at 1 Day: <74 mg/mL
  Range at 30 mins.: <74 mg/mL
[2]; Oxalic Acid 350 mM in water
  pH for 50 mg/mL: 1.81
  pH for 100 mg/mL: 3.27
  pH for 200 mg/mL: 4.81
[2]; [10]
  pH for 50 mg/mL: 2.66
  pH for 100 mg/mL: 4.17
  pH for 200 mg/mL: 4.89
[2]; Succinic Acid 350 mM in water
  pH for 50 mg/mL: 4.57
  pH for 100 mg/mL: 5.01
  pH for 200 mg/mL: 4.99
[2]; Tartaric Acid 350 mM in water
  pH for 50 mg/mL: 2.92
  pH for 100 mg/mL: 3.71
  pH for 200 mg/mL: 4.70
[2]; aqueous acid solution, aqueous buffer, thermodynamic from solid, Benzoic Acid 350 mM in water, 25° C., read-out: Range at 30 mins.
  solubility at 30 min: < 49 mg/mL
[2]; [11]
  pH for 50 mg/mL: 7.83
  pH for 100 mg/mL: 7.85
  pH for 200 mg/mL: 7.93
[2]; [12]
  Range at 1 Day: <52 mg/mL
  Range at 30 mins.: <52 mg/mL
[2]; with nicotinic acid, methanesulfonic acid, isethionic acid, benzoic acid, acetic acid and glutamic acid
  solubility (in words): poor solubility
[2]; with tartaric acid, fumaric acid, citric acid, malic acid, oxalic acid, oxoglutaric acid and ethanesulfonic acid
  solubility (in words): good solubility

— patent US20210107874A1, “PHARMACEUTICAL FORMULATION OF CROTONYLAMINOPYRIDINE SALT” (priority 2017, published 2021)
